According to patent US20020137929A1, “1 - (3-heterocyclylphenyl) isothiourea, -isourea, -guanidine and -amidine herbicidal agents” (Intellectual Property Department, BASF Aktiengesellschaft, priority 1998, published 2002):

What was measured:
[1] = tested on: TRZAWR (Wheat, Winter, cv Riband); experiment: Preemergence herbicidal evaluation; assay type: in vivo, Triticum aestivum; conditions: rated 4-5 weeks after treatment, rating scale 0-9
Summary of the method: (§1)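 Test compound, dissolved in aqueous acetone, was sprayed over planted soil cups at an equivalent of about 0.0156 to 0.500 kg/ha; seeds had been mixed with potting soil. Greenhouse growth followed, with visual 0-9 scoring of injury at four to five weeks.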

ECHCG (Barnyardgrass) = experiment: Preemergence herbicidal evaluation; assay type: in vivo, Echinochloa crus-galli; conditions: rated 4-5 weeks after treatment, rating scale 0-9
Summary of the method: as §1

[2] = tested on: IPOHE (Morningglory, Ivyleaf); experiment: Postemergence herbicidal evaluation; assay type: in vivo, Ipomoea hederacea; conditions: postemergence
Summary of the method: (§2)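 Visual 0–9 rating versus control (stand, vigor, malformation, size, chlorosis, overall appearance), taken four to five weeks post-spray. Two-week-old seedlings received roughly 0.0156–0.500 kg/ha active in acetone/water (50/50) with 0.5% TWEEN 20 via nozzle at 40 psi.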

ORYSAT (Rice, Tebonnet) = experiment: Preemergence herbicidal evaluation; assay type: in vivo, Oryza sativa, (L.) Tebonnet; conditions: rated 4-5 weeks after treatment, rating scale 0-9
Summary of the method: as §1

[3] = tested on: TRZAWR (Wheat, Winter, cv Riband); experiment: Postemergence herbicidal evaluation; assay type: in vivo, Triticum aestivum; conditions: postemergence
Summary of the method: as §2

SETVI (Foxtail, Green) = experiment: Preemergence herbicidal evaluation; assay type: in vivo, Setaria viridis; conditions: rated 4-5 weeks after treatment, rating scale 0-9
Summary of the method: as §1

MOOVA (Monochoria) = experiment: Preemergence weed control under flooded paddy conditions; assay type: in vivo, Monochoria vaginalis; conditions: rated 3-4 weeks after treatment
Summary of the method: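 Using flooded silt loam (water 1.5 to 3 cm deep), seeds sown in the top 0.5 cm were exposed preemergence to compound pipetted into the flood at about 0.0313 to 0.500 kg/ha. Effects were scored 0-9 by eye three to four weeks later.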

ABUTH (Velvetleaf) = experiment: Postemergence herbicidal evaluation; assay type: in vivo, Abutilon theophrasti; conditions: postemergence
Summary of the method: as §2

[4] = tested on: CHEAL (Lambsquarters, Common); experiment: Preemergence herbicidal evaluation; assay type: in vivo, Chenopodium album; conditions: rated 4-5 weeks after treatment, rating scale 0-9
Summary of the method: as §1

[5] = tested on: ECHORC (Watergrass (Calif.)); experiment: Preemergence weed control under flooded paddy conditions; assay type: in vivo, Echinochloa oryzoides; conditions: rated 3-4 weeks after treatment
Summary of the method: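 First, seeds or propagules go into the top 0.5 cm of silt loam; next, water is held 1.5 to 3 cm over the soil; then compound (50/50 acetone/water) is pipetted into it at about 0.0313 to 0.500 kg/ha; finally plants are rated visually 0-9 after three to four weeks.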

[6] = tested on: IPOHE (Morningglory, Ivyleaf); experiment: Preemergence herbicidal evaluation; assay type: in vivo, Ipomoea hederacea; conditions: rated 4-5 weeks after treatment, rating scale 0-9
Summary of the method: as §1

Cn1c(C(F)(F)F)cc(=O)n(-c2cc(N=C3SCC(=O)N3Cc3cccnc3)c(Cl)cc2F)c1=O [Compound 132, 3-{4-Chloro-2-fluoro-5-{[4-oxo-3-(3-pyridylmethyl)-2-thiazolidinylidene]amino}phenyl}-1-methyl-6-(trifluoromethyl)-2,4 (1H,3H)-pyrimidinedione]
2.0: Preemergence herbicidal rating IPOHE ([6]; rate 0.2500 kg/ha)
6.0: Herbicidal rating IPOHE ([2]; rate 0.0156 kg/ha) | herbicidal effect rating, MOOVA (MOOVA (Monochoria); 0.0313 kg/ha) | herbicidal effect rating, ECHORC ([5]; 0.2500 kg/ha)
7.0: Preemergence herbicidal rating ECHCG (ECHCG (Barnyardgrass); rate 0.2500 kg/ha)
4.0: Herbicidal rating TRZAWR ([3]; rate 0.0625 kg/ha) | herbicidal effect rating, ECHORC ([5]; 0.0625 kg/ha) | herbicidal effect rating, ECHORC ([5]; 0.1250 kg/ha)
1.0: Preemergence herbicidal rating TRZAWR ([1]; rate 0.2500 kg/ha) | Preemergence herbicidal rating ORYSAT (ORYSAT (Rice, Tebonnet); rate 0.2500 kg/ha)
3.0: Herbicidal rating TRZAWR ([3]; rate 0.0156 kg/ha) | Preemergence herbicidal rating SETVI (SETVI (Foxtail, Green); rate 0.1250 kg/ha) | herbicidal effect rating, ECHORC ([5]; 0.0313 kg/ha)
0.0: Preemergence herbicidal rating TRZAWR ([1]; rate 0.0625 kg/ha) | Preemergence herbicidal rating TRZAWR ([1]; rate 0.1250 kg/ha) | Preemergence herbicidal rating ECHCG (ECHCG (Barnyardgrass); rate 0.0625 kg/ha) | Preemergence herbicidal rating ECHCG (ECHCG (Barnyardgrass); rate 0.1250 kg/ha) | Preemergence herbicidal rating ORYSAT (ORYSAT (Rice, Tebonnet); rate 0.0625 kg/ha) | Preemergence herbicidal rating ORYSAT (ORYSAT (Rice, Tebonnet); rate 0.1250 kg/ha) | Preemergence herbicidal rating SETVI (SETVI (Foxtail, Green); rate 0.0625 kg/ha) | Preemergence herbicidal rating IPOHE ([6]; rate 0.0625 kg/ha) | Preemergence herbicidal rating IPOHE ([6]; rate 0.1250 kg/ha)
3.5: Herbicidal rating TRZAWR ([3]; rate 0.0313 kg/ha)
9.0: Herbicidal rating IPOHE ([2]; rate 0.0313 kg/ha) | Herbicidal rating IPOHE ([2]; rate 0.0625 kg/ha) | Preemergence herbicidal rating SETVI (SETVI (Foxtail, Green); rate 0.2500 kg/ha) | herbicidal effect rating, MOOVA (MOOVA (Monochoria); 0.0625 kg/ha) | herbicidal effect rating, MOOVA (MOOVA (Monochoria); 0.1250 kg/ha) | herbicidal effect rating, MOOVA (MOOVA (Monochoria); 0.2500 kg/ha) | Herbicidal rating ABUTH (ABUTH (Velvetleaf); rate 0.0156 kg/ha) | Herbicidal rating ABUTH (ABUTH (Velvetleaf); rate 0.0313 kg/ha) | Herbicidal rating ABUTH (ABUTH (Velvetleaf); rate 0.0625 kg/ha) | Preemergence herbicidal rating CHEAL ([4]; rate 0.0625 kg/ha) | Preemergence herbicidal rating CHEAL ([4]; rate 0.1250 kg/ha) | Preemergence herbicidal rating CHEAL ([4]; rate 0.2500 kg/ha)

Cn1c(C(F)(F)F)cc(=O)n(-c2cc(N=C3SCC(=O)N3Cc3ccncc3)c(Cl)cc2F)c1=O [Compound 133, 3-{4-Chloro-2-fluoro-5-{[4-oxo-3-(4-pyridylmethyl)-2-thiazolidinylidene]amino}phenyl}-1-methyl-6-(trifluoromethyl)-2,4(1H,3H)-pyrimidinedione]
6.0: herbicidal effect rating, MOOVA (MOOVA (Monochoria); 0.2500 kg/ha) | herbicidal effect rating, ECHORC ([5]; 0.0313 kg/ha) | herbicidal effect rating, ECHORC ([5]; 0.0625 kg/ha)
9.0: Herbicidal rating IPOHE ([2]; rate 0.0156 kg/ha) | Herbicidal rating IPOHE ([2]; rate 0.0313 kg/ha) | Herbicidal rating IPOHE ([2]; rate 0.0625 kg/ha) | Herbicidal rating ABUTH (ABUTH (Velvetleaf); rate 0.0156 kg/ha) | Herbicidal rating ABUTH (ABUTH (Velvetleaf); rate 0.0313 kg/ha) | Herbicidal rating ABUTH (ABUTH (Velvetleaf); rate 0.0625 kg/ha) | Preemergence herbicidal rating CHEAL ([4]; rate 0.0313 kg/ha) | Preemergence herbicidal rating CHEAL ([4]; rate 0.0625 kg/ha) | Preemergence herbicidal rating CHEAL ([4]; rate 0.1250 kg/ha) | Preemergence herbicidal rating CHEAL ([4]; rate 0.2500 kg/ha) | herbicidal effect rating, ECHORC ([5]; 0.1250 kg/ha) | herbicidal effect rating, ECHORC ([5]; 0.2500 kg/ha)
2.5: Herbicidal rating TRZAWR ([3]; rate 0.0156 kg/ha)
1.0: Preemergence herbicidal rating IPOHE ([6]; rate 0.2500 kg/ha)
4.0: herbicidal effect rating, MOOVA (MOOVA (Monochoria); 0.0625 kg/ha) | herbicidal effect rating, MOOVA (MOOVA (Monochoria); 0.1250 kg/ha)
3.5: Herbicidal rating TRZAWR ([3]; rate 0.0625 kg/ha)
3.0: Herbicidal rating TRZAWR ([3]; rate 0.0313 kg/ha) | herbicidal effect rating, MOOVA (MOOVA (Monochoria); 0.0313 kg/ha)
0.0: Preemergence herbicidal rating TRZAWR ([1]; rate 0.0313 kg/ha) | Preemergence herbicidal rating TRZAWR ([1]; rate 0.0625 kg/ha) | Preemergence herbicidal rating TRZAWR ([1]; rate 0.1250 kg/ha) | Preemergence herbicidal rating TRZAWR ([1]; rate 0.2500 kg/ha) | Preemergence herbicidal rating ECHCG (ECHCG (Barnyardgrass); rate 0.0313 kg/ha) | Preemergence herbicidal rating ECHCG (ECHCG (Barnyardgrass); rate 0.0625 kg/ha) | Preemergence herbicidal rating ECHCG (ECHCG (Barnyardgrass); rate 0.1250 kg/ha) | Preemergence herbicidal rating ECHCG (ECHCG (Barnyardgrass); rate 0.2500 kg/ha) | Preemergence herbicidal rating ORYSAT (ORYSAT (Rice, Tebonnet); rate 0.0313 kg/ha) | Preemergence herbicidal rating ORYSAT (ORYSAT (Rice, Tebonnet); rate 0.0625 kg/ha) | Preemergence herbicidal rating ORYSAT (ORYSAT (Rice, Tebonnet); rate 0.1250 kg/ha) | Preemergence herbicidal rating ORYSAT (ORYSAT (Rice, Tebonnet); rate 0.2500 kg/ha) | Preemergence herbicidal rating SETVI (SETVI (Foxtail, Green); rate 0.0313 kg/ha) | Preemergence herbicidal rating SETVI (SETVI (Foxtail, Green); rate 0.0625 kg/ha) | Preemergence herbicidal rating SETVI (SETVI (Foxtail, Green); rate 0.1250 kg/ha) | Preemergence herbicidal rating SETVI (SETVI (Foxtail, Green); rate 0.2500 kg/ha) | Preemergence herbicidal rating IPOHE ([6]; rate 0.0313 kg/ha) | Preemergence herbicidal rating IPOHE ([6]; rate 0.0625 kg/ha) | Preemergence herbicidal rating IPOHE ([6]; rate 0.1250 kg/ha)
